Reference: ChEMBL document CHEMBL1138514, “Rhodamine inhibitors of P-glycoprotein: an amide/thioamide "switch" for ATPase activity” (J Med Chem, 2009)

Tests used:
[1] = target: ATP-dependent translocase ABCB1 (Mus musculus, UniProt P21447); experiment: Inhibition of verapamil-stimulated ATPase activity of mouse cysteine-less MDR3
[2] = Octanol-water partition coefficient, log P of the compound
[3] = target: T1, ATP-dependent translocase ABCB1 (Homo sapiens, UniProt P08183); experiment: Inhibition of human MDR1 expressed in MDCK2 cells assessed as enhancement of Calcein-AM uptake treated 30 mins before Calcein-AM challenge measured after 20 mins
T1 sequence (P08183 whole entry): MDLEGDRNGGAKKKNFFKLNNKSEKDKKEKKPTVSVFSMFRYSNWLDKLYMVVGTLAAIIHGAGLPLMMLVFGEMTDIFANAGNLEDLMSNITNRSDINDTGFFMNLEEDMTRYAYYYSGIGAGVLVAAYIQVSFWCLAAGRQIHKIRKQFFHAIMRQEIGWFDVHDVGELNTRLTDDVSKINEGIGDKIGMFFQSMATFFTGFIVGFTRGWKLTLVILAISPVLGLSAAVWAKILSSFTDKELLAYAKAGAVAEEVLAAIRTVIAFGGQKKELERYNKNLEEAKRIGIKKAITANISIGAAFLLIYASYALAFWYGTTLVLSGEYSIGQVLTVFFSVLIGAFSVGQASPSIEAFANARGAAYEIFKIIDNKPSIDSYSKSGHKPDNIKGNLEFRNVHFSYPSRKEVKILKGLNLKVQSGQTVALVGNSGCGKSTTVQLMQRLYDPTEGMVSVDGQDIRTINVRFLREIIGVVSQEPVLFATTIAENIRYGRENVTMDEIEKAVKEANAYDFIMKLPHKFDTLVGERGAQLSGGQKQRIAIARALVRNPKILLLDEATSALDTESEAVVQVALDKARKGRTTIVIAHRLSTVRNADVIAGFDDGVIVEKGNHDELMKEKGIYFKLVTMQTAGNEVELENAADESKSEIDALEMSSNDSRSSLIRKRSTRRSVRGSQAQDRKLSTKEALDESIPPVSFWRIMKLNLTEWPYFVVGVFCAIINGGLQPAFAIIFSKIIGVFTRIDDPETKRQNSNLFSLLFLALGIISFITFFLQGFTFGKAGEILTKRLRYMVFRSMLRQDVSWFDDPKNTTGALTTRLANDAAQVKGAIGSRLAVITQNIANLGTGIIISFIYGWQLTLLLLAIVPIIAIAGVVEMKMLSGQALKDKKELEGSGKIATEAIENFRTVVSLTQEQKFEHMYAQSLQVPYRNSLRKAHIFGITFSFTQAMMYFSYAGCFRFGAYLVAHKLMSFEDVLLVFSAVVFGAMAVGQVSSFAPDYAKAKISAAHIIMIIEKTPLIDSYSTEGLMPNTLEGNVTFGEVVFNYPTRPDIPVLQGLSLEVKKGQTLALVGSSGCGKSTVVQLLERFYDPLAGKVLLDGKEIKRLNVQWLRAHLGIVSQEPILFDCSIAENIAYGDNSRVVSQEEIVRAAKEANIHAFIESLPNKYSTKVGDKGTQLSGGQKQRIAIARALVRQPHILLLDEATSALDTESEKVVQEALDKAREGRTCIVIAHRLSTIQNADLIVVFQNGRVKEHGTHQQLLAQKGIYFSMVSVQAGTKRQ

[4] = target: MDR3 (ABCB1) (Mus musculus, UniProt P21447); experiment: Induction of mouse cysteine-less MDR3 ATPase activity relative to basal activity
MDR3 (ABCB1), sequence (P21447 whole entry): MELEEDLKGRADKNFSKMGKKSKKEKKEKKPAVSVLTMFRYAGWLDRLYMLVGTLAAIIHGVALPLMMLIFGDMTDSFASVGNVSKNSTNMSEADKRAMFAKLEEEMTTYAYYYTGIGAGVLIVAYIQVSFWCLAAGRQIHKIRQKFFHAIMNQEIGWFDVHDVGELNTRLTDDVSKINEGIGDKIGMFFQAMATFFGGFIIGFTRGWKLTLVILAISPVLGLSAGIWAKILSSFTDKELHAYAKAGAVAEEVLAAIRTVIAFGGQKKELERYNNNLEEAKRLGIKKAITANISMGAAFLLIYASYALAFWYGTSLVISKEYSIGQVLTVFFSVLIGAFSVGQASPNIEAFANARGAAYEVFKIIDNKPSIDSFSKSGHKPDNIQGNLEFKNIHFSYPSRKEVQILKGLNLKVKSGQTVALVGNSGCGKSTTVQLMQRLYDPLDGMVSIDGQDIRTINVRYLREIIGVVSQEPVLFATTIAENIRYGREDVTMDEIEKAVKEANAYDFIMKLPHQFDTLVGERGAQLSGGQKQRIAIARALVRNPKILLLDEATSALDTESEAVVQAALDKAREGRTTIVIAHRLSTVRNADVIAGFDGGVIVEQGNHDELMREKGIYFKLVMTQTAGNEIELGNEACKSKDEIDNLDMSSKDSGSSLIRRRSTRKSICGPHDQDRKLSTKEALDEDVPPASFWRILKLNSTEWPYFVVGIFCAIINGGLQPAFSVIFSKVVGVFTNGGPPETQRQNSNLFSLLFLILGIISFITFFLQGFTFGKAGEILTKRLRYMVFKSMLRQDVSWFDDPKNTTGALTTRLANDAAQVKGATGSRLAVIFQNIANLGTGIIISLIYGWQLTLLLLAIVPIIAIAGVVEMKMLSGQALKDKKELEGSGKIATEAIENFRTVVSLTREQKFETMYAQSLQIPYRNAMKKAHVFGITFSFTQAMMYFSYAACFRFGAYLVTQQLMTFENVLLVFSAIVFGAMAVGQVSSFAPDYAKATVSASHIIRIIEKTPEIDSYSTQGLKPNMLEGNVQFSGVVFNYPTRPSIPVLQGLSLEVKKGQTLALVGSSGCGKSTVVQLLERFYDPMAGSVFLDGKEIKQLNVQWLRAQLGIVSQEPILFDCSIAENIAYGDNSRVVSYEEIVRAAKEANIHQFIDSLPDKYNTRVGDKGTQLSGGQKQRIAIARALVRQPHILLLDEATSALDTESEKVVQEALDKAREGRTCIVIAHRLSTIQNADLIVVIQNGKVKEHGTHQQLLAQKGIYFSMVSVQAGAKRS

[5] = target: MDR1 (ABCB1) (Homo sapiens, UniProt P08183); experiment: Induction of human histidine10-tagged MDR1 ATPase activity expressed in BHK cells relative to basal activity
MDR1 (ABCB1), sequence (P08183 whole entry): as the sequence (P08183 whole entry) above

[6] = target: T1, ATP-dependent translocase ABCB1; experiment: Inhibition of verapamil-stimulated ATPase activity of human histidine10-tagged MDR1 expressed in BHK cells
[7] = Permeability from apical to basolateral side of MDCK2 cell monolayer over expressing MDR1 assessed as drug concentration associated with cell at 5 uM after 1 hr of drug washout by methanol; conditions: dog
[8] = Permeability from apical to basolateral side of MDCK2 cell monolayer over expressing MDR1 assessed as drug concentration associated with cell at 5 uM after 1 hr of drug washout by methanol in presence of LSN335984; conditions: dog
[9] = system: MDR1; experiment: Efflux ratio of permeability from apical to basolateral over basolateral to apical side in MDCK2 cells over expressing MDR1 at 5 uM after 1 hr in presence LSN335984 pretreated for 30 mins measured after 1 hr; conditions: dog
[10] = system: MDR1; experiment: (§1) Permeability from apical to basolateral side of MDCK2 cells over expressing MDR1 at 5 uM in presence LSN335984 pretreated for 30 mins measured after 1 hr; conditions: dog
[11] = system: MDR1; experiment: (§2) Permeability from basolateral to apical side of MDCK2 cells over expressing MDR1 at 5 uM in presence LSN335984 pretreated for 30 mins measured after 1 hr; conditions: dog
[12] = system: MDR1; experiment: (§3) Permeability from basolateral to apical side of MDCK2 cells over expressing MDR1 at 5 uM after 1 hr; conditions: dog, MDCK-MDR1
[13] = system: MDR1; experiment: (§4) Efflux ratio of permeability from apical to basolateral over basolateral to apical side in MDCK2 cells over expressing MDR1 at 5 uM after 1 hr; conditions: dog, MDCK-MDR1
[14] = system: MDR1; experiment: (§5) Permeability from apical to basolateral side of MDCK2 cells over expressing MDR1 at 5 uM after 1 hr; conditions: dog, MDCK-MDR1
[15] = as §1; conditions: dog, MDCK-MDR1, 1 h, 5 µM
[16] = as §2; conditions: dog, MDCK-MDR1, 1 h, 5 µM
[17] = as §3; conditions: dog, MDCK-MDR1, 1 h, 5 µM
[18] = as §5; conditions: dog, MDCK-MDR1, 1 h, 5 µM
[19] = Ratio of permeability from apical to basolateral side after 1 hr of drug washout by methanol to apical to basolateral side in MDCK2 cell monolayer over expressing MDR1 at 5 uM after 1 hr of drug washout by methanol in presence LSN335984; conditions: dog, mdck-ii
[20] = as §4; conditions: dog, MDCK-MDR1, 1 h, 5 µM
[21] = human histidine10-tagged MDR1 expressed in BHK cells
[22] = MDCK-MDR1, with LSN335984 (concentration not stated)

ATP-dependent translocase ABCB1 (Mus musculus, UniProt P21447), sequence (P21447 whole entry, looked up): as the sequence (P21447 whole entry) above

Work on `CN(C)c1ccc2c(-c3ccc(C(=S)N4CCCCC4)s3)c3ccc(=[N+](C)C)cc-3sc2c1` yielded an IC50 [1] of 32 µM and a logP [2] of 1.7.

With `C[N+](C)=c1ccc2c(-c3ccc(C(=S)N4CCOCC4)s3)c3cc4c5c(c3sc-2c1)CCCN5CCC4` the IC50 [3] was 20 µM.

For `CCN(CC)C(=O)c1ccc(-c2c3ccc(=[N+](C)C)cc-3sc3cc(N(C)C)ccc23)s1`, the fold induction ([4]; mouse cysteine-less MDR3) was 10.6.

`CN(C)c1ccc2c(-c3ccccc3)c3ccc(=[N+](C)C)cc-3[se]c2c1` gave a fold induction [5, 21] of 7.2, a fold induction ([4]; mouse cysteine-less MDR3) of 4 and an IC50 [3] of 11 µM.

`CN(C)c1ccc2c(-c3ccsc3C(=O)O)c3ccc(=[N+](C)C)cc-3[se]c2c1` gave a fold induction [5, 21] of 2.1 and a fold induction ([4]; mouse cysteine-less MDR3) of 1.7.

In the case of `CN(C)c1ccc2c(CCCOc3ccccc3)c3ccc(=[N+](C)C)cc-3sc2c1`, the fold induction [5, 21] is reported as 6.2 and the fold induction ([4]; mouse cysteine-less MDR3) is reported as 6.

For `COc1cccc(-c2c3ccc(=[N+](C)C)cc-3[te]c3cc(N(C)C)ccc23)c1`, the fold induction [5, 21] was 5.7.

In the case of `CN(C)c1cccc(-c2c3ccc(=[N+](C)C)cc-3[te]c3cc(N(C)C)ccc23)c1`, the fold induction [5, 21] is reported as 5.5.

For `CN(C)c1cccc(-c2c3ccc(=[N+](C)C)cc-3[se]c3c4c5c(cc23)CCCN5CCC4)c1`, the fold induction [5, 21] was under 1.5 and the IC50 [6] was 23.6 µM.

In the case of `CN(C)c1cccc(-c2c3ccc(=[N+](C)C)cc-3sc3cc(N(C)C)ccc23)c1`, the fold induction [5, 21] is reported as 7.7 and the fold induction ([4]; mouse cysteine-less MDR3) is reported as 3.5.

With `C[N+](C)=c1ccc2c(-c3ccc(C(=S)N4CCCCC4)s3)c3cc4c5c(c3[se]c-2c1)CCCN5CCC4` the IC50 [3] was 5.3 µM.

For `COC(=O)c1ccccc1-c1c2ccc(=[N+](C)C)cc-2sc2cc(N(C)C)ccc12`, the fold induction ([4]; mouse cysteine-less MDR3) was 6.

Compound `CN(C)c1ccc2c(-c3ccsc3C(=O)O)c3ccc(=[N+](C)C)cc-3sc2c1` has a fold induction [5, 21] of 4.3.

Work on `C[N+](C)=c1ccc2c(-c3ccccc3)c3cc4c5c(c3[te]c-2c1)CCCN5CCC4` yielded a fold induction [5, 21] of 3.

Work on `CN(C)c1ccc2c(-c3ccc(C(=O)O)s3)c3ccc(=[N+](C)C)cc-3sc2c1` yielded a fold induction [5, 21] of 2.7.

For `COc1ccc(-c2c3ccc(=[N+](C)C)cc-3sc3cc(N(C)C)ccc23)cc1OC.F[P-](F)(F)(F)(F)F`, the fold induction [5, 21] was 8.2, the Activity ([7]; mdck-ii, 1 h) was 16% and the Activity ([8]; mdck-ii, 1 h) was 53%. The fold induction ([4]; mouse cysteine-less MDR3) was 3 and the logP [2] was 0.28.

In the case of `CCOC(=O)c1ccc(-c2c3ccc(=[N+](C)C)cc-3sc3cc(N(C)C)ccc23)s1`, the fold induction ([4]; mouse cysteine-less MDR3) is reported as 2.9.

For `CN(C)c1ccc2c(-c3ccccc3C(=O)O)c3ccc(=[N+](C)C)cc-3sc2c1`, the fold induction ([4]; mouse cysteine-less MDR3) was 3.5.

In the case of `CN(C)c1ccc2c(-c3ccc(C(=S)N4CCCCC4)s3)c3ccc(=[N+](C)C)cc-3[te]c2c1.F[P-](F)(F)(F)(F)F`, the efflux ratio at 1 h, 5 µM ([9]; MDCK-MDR1) is reported as 1.7, the Papp A→B at 1 h, 5 µM ([10]; MDCK-MDR1) is reported as 0.12 ×10⁻⁶ cm/s and the Activity ([7]; MDCK-MDR1, 1 h) is reported as 12%. For the same compound, the Papp B→A at 1 h, 5 µM ([11]; MDCK-MDR1) was 0.2 ×10⁻⁶ cm/s, the Papp B→A at 1 h, 5 µM [12] was 2.2 ×10⁻⁶ cm/s and the efflux ratio at 1 h, 5 µM [13] was 24. It also gave a Papp A→B at 1 h, 5 µM [14] of 0.09 ×10⁻⁶ cm/s.

`C[N+](C)=c1ccc2c(-c3ccc(C(=S)N4CCCCC4)s3)c3cc4c5c(c3[te]c-2c1)CCCN5CCC4` showed an IC50 [3] of 14 µM.

Work on `C[N+](C)=c1ccc2c(-c3ccc(C(=S)N4CCCCC4)s3)c3cc4c5c(c3sc-2c1)CCCN5CCC4.F[P-](F)(F)(F)(F)F` yielded a permeability [15] of 0.08 ×10⁻⁶ cm/s, an Activity ([7]; MDCK-MDR1, 1 h) of 23% and a permeability [16] of 0.16 ×10⁻⁶ cm/s. It also gave a permeability [17] of 5 ×10⁻⁶ cm/s, an Activity ([8]; MDCK-MDR1, 1 h) of 30% and a logP [2] of 2.7. It also gave a permeability [18] of 0.08 ×10⁻⁶ cm/s.

For `CN(C)c1ccc(-c2c3ccc(=[N+](C)C)cc-3[se]c3c4c5c(cc23)CCCN5CCC4)cc1`, the fold induction [5, 21] was under 1.5 and the IC50 [6] was 6.8 µM.

Work on `C[N+](C)=c1ccc2c(-c3ccccc3)c3cc4c5c(c3[se]c-2c1)CCCN5CCC4.F[P-](F)(F)(F)(F)F` yielded an efflux ratio at 1 h, 5 µM [9, 22] of 0.9, a Ratio [19] of 2 and a Papp A→B at 1 h, 5 µM [10, 22] of 1.3 ×10⁻⁶ cm/s. The fold induction [5, 21] was under 1.5, the Activity ([7]; mdck-ii, 1 h) was 32% and the Papp B→A at 1 h, 5 µM [11, 22] was 1.2 ×10⁻⁶ cm/s. It also gave an IC50 [1] of 0.28 µM, a Papp B→A at 1 h, 5 µM [12] of 25 ×10⁻⁶ cm/s and an Activity ([8]; mdck-ii, 1 h) of 64%. For the same compound, the IC50 [6] was 2.3 µM, the fold induction ([4]; mouse cysteine-less MDR3) was 2.1 and the IC50 [3] was 4.9 µM. The logP [2] was 2.4, the efflux ratio at 1 h, 5 µM [13] was 15 and the Papp A→B at 1 h, 5 µM [14] was 1.6 ×10⁻⁶ cm/s.

Work on `CN(C)c1cccc(-c2c3ccc(=[N+](C)C)cc-3[se]c3cc(N(C)C)ccc23)c1` yielded a fold induction [5, 21] of 7.6.

With `COc1cccc(-c2c3ccc(=[N+](C)C)cc-3sc3cc(N(C)C)ccc23)c1.[Br-]` the Activity ([8]; mdck-ii, 1 h) was 56% and the logP [2] was 0.14.

In the case of `CN(C)c1ccc2c(-c3ccc(CCl)cc3)c3ccc(=[N+](C)C)cc-3oc2c1.[Br-]` [TETRAMETHYLROSAMINE], the efflux ratio at 1 h, 5 µM ([9]; MDCK-MDR1) is reported as 1.6, the Ratio [19] is reported as 4.3 and the Papp A→B at 1 h, 5 µM [10, 22] is reported as 1.4 ×10⁻⁶ cm/s. The Activity ([7]; mdck-ii, 1 h) was 14.5%, the Papp B→A at 1 h, 5 µM [11, 22] was 2.1 ×10⁻⁶ cm/s and the Papp B→A at 1 h, 5 µM [12] was 101 ×10⁻⁶ cm/s. The Activity ([8]; mdck-ii, 1 h) was 54%, the fold induction ([4]; mouse cysteine-less MDR3) was 3.7 and the logP [2] was 1.1. It also gave a Ratio [20] of 338 and a Papp A→B at 1 h, 5 µM [14] of 0.3 ×10⁻⁶ cm/s.

`C[N+](C)=c1ccc2c(-c3ccc(C(=S)N4CCOCC4)s3)c3cc4c5c(c3[se]c-2c1)CCCN5CCC4` showed an IC50 [3] of 14 µM.

`CN(C)c1ccc2c(-c3ccc(N4CCOCC4)cc3)c3ccc(=[N+](C)C)cc-3sc2c1` showed a fold induction [5, 21] of 4.8.

`CCN(CC)C(=O)c1ccccc1-c1c2ccc(=[N+](C)C)cc-2sc2cc(N(C)C)ccc12` gave a fold induction ([4]; mouse cysteine-less MDR3) of 10.1.

Work on `CN(C)c1ccc(-c2c3ccc(=[N+](C)C)cc-3[se]c3cc(N(C)C)ccc23)cc1` yielded a fold induction ([5]; bhk) of 6.8, an IC50 [1] of 21 µM and a fold induction [4] of 2.3.

`CN(C)c1ccc(-c2c3ccc(=[N+](C)C)cc-3sc3cc(N(C)C)ccc23)cc1` gave a fold induction [5, 21] of 9 and a fold induction ([4]; mouse cysteine-less MDR3) of 1.

`CCN(CC)C(=O)c1ccc(-c2c3ccc(=[N+](C)C)cc-3[se]c3cc(N(C)C)ccc23)s1.F[P-](F)(F)(F)(F)F` showed a fold induction [5, 21] of 10.5, an Activity ([7]; mdck-ii, 1 h) of 11% and an Activity ([8]; mdck-ii, 1 h) of 24%. The fold induction ([4]; mouse cysteine-less MDR3) was 10.1 and the logP [2] was -0.39.

In the case of `CN(C)c1ccc2c(-c3ccccc3)c3ccc(=[N+](C)C)cc-3[te]c2c1`, the fold induction [5, 21] is reported as 8.4.

`CN(C)c1ccc2c(-c3ccc(N4CCOCC4)cc3)c3ccc(=[N+](C)C)cc-3[se]c2c1` showed a fold induction [5, 21] of 3.3, an IC50 [1] of 23 µM and a fold induction ([4]; mouse cysteine-less MDR3) of under 1.

Compound `CN(C)c1ccc2c(-c3ccc(C(=O)O)s3)c3ccc(=[N+](C)C)cc-3[te]c2c1` has a fold induction [5, 21] of 1.8.

In the case of `CN(C)c1ccc(-c2c3ccc(=[N+](C)C)cc-3[te]c3cc(N(C)C)ccc23)cc1`, the fold induction [5, 21] is reported as 4.5.

With `COc1cccc(-c2c3ccc(=[N+](C)C)cc-3[se]c3cc(N(C)C)ccc23)c1` the fold induction [5, 21] was 2.5 and the fold induction ([4]; mouse cysteine-less MDR3) was 6.4.
